Data from US20250177339A1, “Methods for Treating Tauopathy” (BioJiva LLC, priority 2020, published 2025).
“Also recorded” adds a separate entry of the source.

Key:
[1] = Pharmacokinetic sampling: ratio of D2-AA to AA in red blood cells of treated patients; format: in vivo, human
Procedure: (§1) Three patients diagnosed with likely PSP underwent baseline assessment using the 28-item Progressive Supranuclear Palsy Rating Scale (PSPRS) and the Unified Parkinson's Disease Rating Scale (UPDRS). They were then treated with D2-Lin (2.88 g BID; 5.76 g total daily dose) and observed for disease progression. The second patient had their dose increased (2.88 g TID; 8.64 g total daily dose) after the first year of treatment. During the treatment period, scores in the 2 rating scales were determined every 3 months. Pharmacokinetic (PK) sampling was performed at month 3. These analytes included plasma and RBC membrane levels of (D2-LA) and its centrally active metabolite D2-AA.
At 3 months, the following data was collected:
At 12 months, the following data was collected:
The above results evidence that a percent ratio of 11,11-D2-AA to AA in red blood cells of about 3% is necessary to achieve therapeutic results.

[2] = tested on: SROS MSCs; assay: Glutathione level (monochlorobimane) in SROS/PSP MSCs; format: cell-based, human; settings: for glutathione (GSH) level, in words: SROS/PSP MSCs, MCB intensity
Procedure: (§2) The effect of D2-Lin on mesenchymal stem cells derived from patients with SROS was assessed using non-deuterated Lin as a control. MSC preparations from bone marrow aspirates from control subjects were compared to 3 subjects with SROS, following protocols described in Hill S., et al., Free Radic. Biol. Med. (2012) 53:893-906; and Cotticelli M G., et al., Redox Biol. (2013) 1:398-404.
Glutathione-related machinery is the major mechanism involved with slowing down the inhibition/propagation the LPO chain as well as mopping up the toxic end products of LPO. Consumption of the endogenous antioxidant glutathione is an indirect measure of oxidative stress.
(§3) MSC preparations from BM were obtained from control subjects and from the PSP subjects following previously described protocols. In short, MSCs were isolated from BM aspirates seeding 50,000 mononucleated cells/cm2 in αMEM (Thermo Fisher Scientific, Waltham, MA, USA) supplemented with 10% fetal bovine serum (FBS; Thermo Fisher Scientific), in T75 flasks. The cultures were incubated at 37° C., 20% O2, 5% CO2. Medium changes were performed twice a week. Two weeks after initial seeding, primary MSC colonies were detached with a 10-minute incubation at 37° C. with TrypLE Select Enzyme (Thermo Fisher Scientific) and replated at 4000 cells/cm^2 in the same medium. MSC identity was previously assessed. Subsequent passages were performed following the same steps. Passage 4-6 MSCs were used for all experiments. […]
For assessments of glutathione levels, the PSP-MSCs cultures were incubated with 50 μM monochlorobimane (MCB) (Molecular Probes, Invitrogen) for 40 minutes in HEPES buffered salt solution prior to imaging. Cells were then washed with HEPES buffered salt solution and images of the fluorescence of the MCB-GSH were acquired using a Zeiss 710 CLSM with excitation at 405 nm and emission at 435-485 nm. Mitochondrial ROS generation rate was assessed using MitoTracker® Red CM-H2XRos (Thermo Fisher Scientific) which accumulates into mitochondria upon oxidation. The fluorescence measurement was obtained by excitation with 561 nm laser and emission detected above 580 nm. Mitochondrial membrane potential (ΔΨm) was assessed using 25 nM tetramethylrhodamine methyl ester (TMRM, Thermo Fisher Scientific) at 560 nm excitation and fluorescence was measured above 580 nm. Z-stack images were collected and the fluorescence intensity of TMRM was analyzed using Zen software (Zeiss). […]
Glutathione levels were measured using MCB. […]

[3] = tested on: SROS MSCs; assay: Rate of lipid peroxidation (BODIPY C11) in SROS/PSP MSCs; format: cell-based, human; settings: 72-hour incubation; for rate of lipid peroxidation (LPO), in words: SROS/PSP MSCs, BODIPY C11
Procedure: as §2
(§4) LPO has been implicated as an early and pivotal factor in SROS. Specifically, increased levels of n-6 PUFA oxidation products such as 4-HNE were reported, as a direct consequence of the LPO chain reaction. Accordingly, the difference in basal MMP and ROS generation between control and the 3 cell lines of SROS MSCs was associated with increased rates of LPO, as detected by the LPO-specific probe, BODIPY C11.
as §3
(§5) Lipid peroxidation was measured using confocal microscopy (Zeiss 710 LSM with an integrated META detection system). The rate of lipid peroxidation was measured using C11-BODIPY 581/591 ([…]; Molecular probes) which was excited by the 488 and 543 nm laser line and fluorescence measured using a band-pass filter from 505 to 550 nm and 560 nm long-pass filter (40× oil-objective). […]

[4] = tested on: patients diagnosed with likely PSP; assay: Progressive Supranuclear Palsy Rating Scale (PSPRS) in treated patients; format: in vivo, human; settings: three PSP patients; 2.88 g BID; after 3 months of therapy; historical decline 0.91 points/month; +/-0.23 SEM
Procedure: as §1
(§6) The three patients were 2 males ([…]) and one person each of whom had pre-treatment symptom duration of 6 years and 3 years for the two males and 2 years for the person. The baseline PSPRS for the two males was 17 and 12 respectively and 13 for the person. The baseline UPDRS for the two males was 44 and 36 respectively and 21 for the person.
(§7) After 3 months of therapy, the slope of the PSPRS changed from the historical decline of 0.91 points/month to a mean of decline of 0.16 points/month (+/−0.23 SEM). The UPDRS slope changed from an expected increase of 0.95 points/month to an average increase in score of 0.28 points/month (+/−0.41 SEM).

[5] = tested on: control MSC; assay: Mitochondrial DNA level (PicoGreen fluorescence in non-nuclear area) in control MSCs; format: cell-based, human; settings: after 72 hours incubation, from 100% before
Procedure: as §2
(§8) The number of mitochondria within the cells is regulated by the balance between mitochondrial biogenesis and mitophagy. Accordingly, for the normal maintenance of the mitochondrial balance, SROS-MSCs should activate mitochondrial biogenesis. […] Various factors, for example excessive fusion can result in a lower number of mitochondria in the cell, leading to impaired respiration, a lower production of ATP, and increased oxidative damage. Arun et al., Curr. Neuropharmacol. (2016) 14:143-154. However, after 72 hours incubation of the cells with D2-PUFAs mitochondrial DNA increased for both control and SROS MSCs.

[6] = tested on: control MSCs; assay: Mitochondrial membrane potential (fluorescent indicator, TMRM) in control MSCs; format: cell-based, human; settings: incubation for 72 hours
Procedure: as §2
(§9) MMP is an important indicator of mitochondrial health and is typically kept at […] values (100-140 mV). A long-lasting drop or rise of normal MMP levels may induce loss of cell viability and various pathologies. ROS and LPO levels are directly linked to MMP, and increase exponentially at MMP>140 mV. […]
(§10) MSC preparations from BM were obtained from control subjects and from the PSP subjects following previously described protocols. […] MSC identity was previously assessed. […]
(§11) For assessments of glutathione levels, the PSP-MSCs cultures were incubated with 50 μM monochlorobimane (MCB) (Molecular Probes, Invitrogen) for 40 minutes in HEPES buffered salt solution prior to imaging. Cells were then washed with HEPES buffered salt solution and images of the fluorescence of the MCB-GSH were acquired using a Zeiss 710 CLSM with excitation at 405 nm and emission at 435-485 nm. […] The fluorescence measurement was obtained by excitation with 561 nm laser and emission detected above 580 nm. […]

[7] = tested on: control MSCs; assay: Rate of lipid peroxidation (BODIPY C11) in control MSCs; format: cell-based, human; settings: 72-hour incubation
Procedure: as §2, §4
as §5, with “oil-objective). Illumination intensity was kept to a minimum (0.1-0.2% of laser output) to prevent phototoxicity and the pinhole was set to give an optical slice of […].” for “oil-objective).”

[8] = tested on: MSCs derived from patients with SROS; assay: Mitochondrial health (morphology, number, function) of SROS MSCs; format: cell-based, human; settings: incubation for 72 hours
Procedure: as §2
These include changes in mitochondrial morphology, number, and function.

[9] = tested on: SROS-MSC; assay: Mitochondrial DNA level (PicoGreen fluorescence in non-nuclear area) in SROS MSCs; format: cell-based, human; settings: after 72 hours incubation, from 67.5% before, relative to control MSC 100%
Procedure: as §2, §8

[10] = tested on: patients diagnosed with likely PSP; assay: Unified Parkinson's Disease Rating Scale (UPDRS) in treated patients; format: in vivo, human; settings: three PSP patients; 2.88 g BID; after 3 months of therapy; expected increase 0.95 points/month; +/-0.41 SEM
Procedure: as §1, §6, §7

[11] = tested on: SROS-MSCs; assay: Mitochondrial membrane potential (fluorescent indicator, TMRM) in SROS MSCs; format: cell-based, human; settings: SROS cells from SROS patients; incubation for 72 hours
Procedure: as §2, §9, §10, §11

[12] = tested on: SROS MSCs; assay: Mitochondrial shape in SROS MSCs; format: cell-based, human; settings: pre-treatment
Procedure: as §2
Presynaptic terminals typically contain multiple mitochondria. Misshaped mitochondria can clog the pathways that transport them along neurons and through long axons and elaborate dendritic arbors. Mattson et al., Neuron (2009) 60:748-766. Accordingly, mitochondrial shape is another characteristic of mitochondrial health. Also, the communication pathway between ER and mitochondria through MAM is compromised in misshaped mitochondria, further disturbing protein folding, lipid metabolism, Ca^2+ homeostasis and apoptosis. Lee et al., Mol. Cells (2018) 41:1000-1007. Coincident with the improvements in MMP with D-PUFA incubation, the abnormalities of mitochondrial shape seen in SROS MSCs were improved with D-PUFA pre-treatment, resulting in more uniformly looking mitochondria.

Structure (SMILES) | % ratio of 11,11-D2-AA to AA ([1]; Patient 1, evaluated at 4 months of D2-Lin treatment) | % ratio of 11,11-D2-AA to AA ([1]; Patient 1, evaluated at 13 months of D2-Lin treatment) | % ratio of 11,11-D2-AA to AA ([1]; Patient 2, at 3 months of D2-Lin treatment) | % ratio of 11,11-D2-AA to AA ([1]; Patient 2, at 12 months of D2-Lin treatment) | % ratio of 11,11-D2-AA to AA ([1]; Patient 3, at 3 months of D2-Lin treatment) | % ratio of 11,11-D2-AA to AA ([1]; Patient 3, at 12 months of D2-Lin treatment) | glutathione levels less than those found in the D2-Lin test ([2]; PSP MSCs, after incubation, compared with D2-Lin-incubated PSP MSCs) | glutathione (GSH) level, in words [2] | rate of lipid peroxidation (LPO), in words [3] | slope of the PSPRS, mean decline [4] | level of mitochondrial DNA (estimation of number of mitochondria) [5] | glutathione (GSH) level, in words ([2]; listed as D2-PUFAs) | mitochondrial membrane potential (MMP) [6] | rate of LPO, % of the pre-treatment value [7] | mitochondrial morphology, number, and function [8] | level of mitochondrial DNA (estimation of number of mitochondria) [9] | UPDRS slope, average increase in score [10] | rate of lipid peroxidation (LPO) ([3]; SROS MSCs, % of control, from 161.8% before, N=8) | mitochondrial membrane potential (MMP) [11] | abnormalities of mitochondrial shape [12]
[2H]C([2H])(/C=C\C/C=C\C/C=C\CCCC(=O)O)/C=C\CCCCC [13,13-D2-Arachadonic acid] | 5.9% | 10.5% | 3.3% | 6.9% | 5% | 8.6% |  |  |  |  |  |  |  |  |  |  |  |  |  | 
CCCCC/C=C\C/C=C\CCCCCCCC(=O)O [H2-LA, Non-deuterated linoleic acid, reference compound] |  |  |  |  |  |  | about 30% | remained low | remained elevated at over two times that of the treated levels |  |  |  |  |  |  |  |  |  |  | 
[2H]C([2H])(/C=C\CCCCC)/C=C\CCCCCCCC(=O)O [D2-Lin, 11,11-D2-Linoleic acid] |  |  |  |  |  |  |  | reversed; also recorded: restored to HC levels | reversed; also recorded: restored the SROS MSCs to normal levels; also recorded: returned to normal levels | 0.16 points/month | 109% | significantly increased | no effect | 84.3% | restores these parameters to control MSC levels | 105.4% | 0.28 points/month | 109.8% | reduced | improved
